Reference: ChEMBL document CHEMBL1201862, “PubChem BioAssay data set” (2004)
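Cultured in 96-well plates, cells were exposed to test compound for 48 hours across five concentrations. GI50 is the concentration that inhibits growth by half.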 Active and inactive are the calls of the source. No stated cut-off is given here; in the data, active = GI50 up to about 1.1 µM and inactive = higher.

How the values were obtained:
Assay in all cases: NCI anticancer screen, dose series, 48 h
MDA-N = tested on: MDA-N
NCI-H522 = tested on: NCI-H522
IGROV-1 = tested on: IGROV-1
OVCAR-8 = tested on: OVCAR-8
SF-295 = tested on: SF-295
A498 = tested on: A498
OVCAR-4 = tested on: OVCAR-4
NCI/ADR-RES = tested on: NCI/ADR-RES
HOP-92 = tested on: HOP-92
LOX IMVI = tested on: LOX IMVI
NCI-H23 = tested on: NCI-H23
KM12 = tested on: KM12
SK-OV-3 = tested on: SK-OV-3
EKVX = tested on: EKVX
UACC-62 = tested on: UACC-62
PC-3 = tested on: PC-3
OVCAR-3 = tested on: OVCAR-3
ACHN = tested on: ACHN
SK-MEL-5 = tested on: SK-MEL-5
SR = tested on: SR
M14 = tested on: M14
TK-10 = tested on: TK-10
CAKI-1 = tested on: CAKI-1
Malme-3M = tested on: Malme-3M
MDA-MB-435 = tested on: MDA-MB-435
SK-MEL-2 = tested on: SK-MEL-2
A549 = tested on: A549
UACC-257 = tested on: UACC-257
HCT-116 = tested on: HCT-116
DU-145 = tested on: DU-145
SNB-75 = tested on: SNB-75
UO-31 = tested on: UO-31
SW-620 = tested on: SW-620
RPMI-8226 = tested on: RPMI-8226
786-0 = tested on: 786-0
U-251 = tested on: U-251
NCI-H460 = tested on: NCI-H460
SF-539 = tested on: SF-539
HL-60 = tested on: HL-60
RXF 393 = tested on: RXF 393
COLO 205 = tested on: COLO 205
NCI-H226 = tested on: NCI-H226
CCRF-CEM = tested on: CCRF-CEM
K562 = tested on: K562
MCF7 = tested on: MCF7
MDA-MB-231 = tested on: MDA-MB-231
HCC 2998 = tested on: HCC 2998
SN12C = tested on: SN12C
OVCAR-5 = tested on: OVCAR-5
MOLT-4 = tested on: MOLT-4
HCT-15 = tested on: HCT-15
SNB-19 = tested on: SNB-19
SK-MEL-28 = tested on: SK-MEL-28
HT-29 = tested on: HT-29
SF-268 = tested on: SF-268

O=CC1=C(C(=O)OC(c2ccccc2)c2ccccc2)N2C(=O)[C@@H](NC(=O)Cc3cccs3)[C@H]2SC1
GI50 (MDA-N): > 100 µM (inactive) | GI50 (NCI-H522): 64.3 µM (inactive) | GI50 (IGROV-1): > 100 µM (inactive) | GI50 (OVCAR-8): > 100 µM (inactive) | GI50 (SF-295): > 100 µM (inactive) | GI50 (A498): > 100 µM (inactive) | GI50 (OVCAR-4): > 100 µM (inactive) | GI50 (NCI/ADR-RES): > 100 µM (inactive) | GI50 (HOP-92): > 100 µM (inactive) | GI50 (LOX IMVI): > 100 µM (inactive) | GI50 (NCI-H23): 73.6 µM (inactive) | GI50 (KM12): 91.2 µM (inactive) | GI50 (SK-OV-3): > 100 µM (inactive) | GI50 (EKVX): > 100 µM (inactive) | GI50 (UACC-62): > 100 µM (inactive) | GI50 (PC-3): > 100 µM (inactive) | GI50 (OVCAR-3): > 100 µM (inactive) | GI50 (ACHN): > 100 µM (inactive) | GI50 (SK-MEL-5): > 100 µM (inactive) | GI50 (SR): 13.2 µM (inactive) | GI50 (M14): > 100 µM (inactive) | GI50 (TK-10): > 100 µM (inactive) | GI50 (CAKI-1): > 100 µM (inactive) | GI50 (Malme-3M): > 100 µM (inactive) | GI50 (MDA-MB-435): 85.5 µM (inactive) | GI50 (SK-MEL-2): > 100 µM (inactive) | GI50 (A549): > 100 µM (inactive) | GI50 (UACC-257): > 100 µM (inactive) | GI50 (HCT-116): 83 µM (inactive) | GI50 (DU-145): > 100 µM (inactive) | GI50 (SNB-75): > 100 µM (inactive) | GI50 (UO-31): 40 µM (inactive) | GI50 (SW-620): > 100 µM (inactive) | GI50 (RPMI-8226): 79.4 µM (inactive) | GI50 (786-0): > 100 µM (inactive) | GI50 (U-251): > 100 µM (inactive) | GI50 (NCI-H460): > 100 µM (inactive) | GI50 (SF-539): > 100 µM (inactive) | GI50 (HL-60): 23.3 µM (inactive) | GI50 (RXF 393): > 100 µM (inactive) | GI50 (COLO 205): > 100 µM (inactive) | GI50 (NCI-H226): > 100 µM (inactive) | GI50 (CCRF-CEM): 57.3 µM (inactive) | GI50 (K562): > 100 µM (inactive) | GI50 (MCF7): > 100 µM (inactive) | GI50 (MDA-MB-231): > 100 µM (inactive) | GI50 (HCC 2998): > 100 µM (inactive) | GI50 (SN12C): > 100 µM (inactive) | GI50 (OVCAR-5): > 100 µM (inactive) | GI50 (MOLT-4): 53.6 µM (inactive) | GI50 (HCT-15): > 100 µM

COc1cc(OC)c(CSCC(NC(=O)OCC2c3ccccc3-c3ccccc32)C(=O)O)c(OC)c1 (centres undefined)
GI50 (MDA-N): > 10 µM (inactive) | GI50 (IGROV-1): > 10 µM (inactive) | GI50 (OVCAR-8): > 10 µM (inactive) | GI50 (SF-295): > 10 µM (inactive) | GI50 (SNB-19): > 10 µM (inactive) | GI50 (A498): > 10 µM (inactive) | GI50 (OVCAR-4): > 10 µM (inactive) | GI50 (NCI/ADR-RES): > 10 µM (inactive) | GI50 (HOP-92): > 10 µM (inactive) | GI50 (NCI-H23): > 10 µM (inactive) | GI50 (KM12): > 10 µM (inactive) | GI50 (EKVX): > 10 µM (inactive) | GI50 (SK-MEL-28): > 10 µM (inactive) | GI50 (PC-3): > 10 µM (inactive) | GI50 (OVCAR-3): > 10 µM (inactive) | GI50 (ACHN): > 10 µM (inactive) | GI50 (SK-MEL-5): > 10 µM (inactive) | GI50 (M14): > 10 µM (inactive) | GI50 (TK-10): > 10 µM (inactive) | GI50 (CAKI-1): > 10 µM (inactive) | GI50 (MDA-MB-435): > 10 µM (inactive) | GI50 (A549): > 10 µM (inactive) | GI50 (HCT-116): > 10 µM (inactive) | GI50 (DU-145): > 10 µM (inactive) | GI50 (SNB-75): 6.95 µM (inactive) | GI50 (UO-31): 5.68 µM (inactive) | GI50 (SW-620): > 10 µM (inactive) | GI50 (U-251): > 10 µM (inactive) | GI50 (SF-539): > 10 µM (inactive) | GI50 (HT-29): > 10 µM (inactive) | GI50 (RXF 393): > 10 µM (inactive) | GI50 (COLO 205): > 10 µM (inactive) | GI50 (NCI-H226): 5.22 µM (inactive) | GI50 (MDA-MB-231): > 10 µM (inactive) | GI50 (SN12C): > 10 µM (inactive) | GI50 (OVCAR-5): > 10 µM (inactive) | GI50 (SF-268): > 10 µM (inactive) | GI50 (HCT-15): > 10 µM
